Reference: patent US11007250B2, “Methods and kits for treating pain” (Duke University, priority 2017, dated 2021)

What was measured:
[1] = test system: TREK2 in CHO cells co-expressing PD-1 and TREK2; assay: Patch clamp recordings in transfected CHO cells; format: cell-based; settings: SSG
Procedure: CHO cell culture, transfection and electrophysiology. CHO cell line was purchased from Duke Cell Culture Facility. Cells were cultured in high glucose (4.5 g/L) Dulbecco's Modified Eagle's Medium containing 10% (v/v) fetal bovine serum (Gibco). Transfection (1 μg cDNA) was performed with Lipofectamine™ 2000 Reagent (Invitrogen) at 70% confluency and the transfected cells were cultured in the same growth medium for 48 h before electrophysiological and biochemical studies. PD1/PDCD1 cDNA construct (SC117011, NM_005018) and TREK2/KCNK10 cDNA construct (SC110477, NM_021161) were purchased from Origene Technologies.
Whole-cell patch clamp recordings in transfected CHO cells were conducted at room temperature using patch pipettes with resistances of 5-6 MD. The recording chamber was continuously superfused (3-4 ml/min). The data were acquired at a rate of 10 kHz and filtered at 3 kHz using an EPC-10 amplifier (HEKA, Germany). Pipette solution contained (in mM): K-gluconate 126, NaCl 10, MgCl2 1, EGTA 10, NaATP 2, and MgGTP 0.1, adjusted to pH 7.3 with KOH. The external solution was composed of (in mM): NaCl 140, KCl 5, CaCl2 2, MgCl2 1, HEPES 10, glucose 10, adjusted to pH 7.4 with NaOH. […] In current-clamp experiments, the resting membrane potential was measured without any membrane potential compensation.

[2] = test system: phosphorylation of SHP-1 (pSHP-1); assay: pSHP-1 immunostaining in mouse DRG neurons; format: cell-based; settings: dissociated DRG neurons; PD-L1 10 ng/ml, SSG 11 μM
[3] = test system: small-diameter human DRG neurons; assay: Patch clamp recordings in dissociated human DRG neurons; format: cell-based; settings: SSG 11 μM
Procedure: Primary cultures and patch clam recordings in human DRG neurons. Non-diseased human DRGs were obtained from donors through NDRI with permission of exemption from Duke IRB. Postmortem L3-L5 DRGs were dissected from 5 male donors at the age of 27, 31, 43, 54, and 67 and delivered in ice-cold culture medium to the laboratory at Duke University within 24-72 hours of death. Upon the delivery, DRGs were rapidly dissected from nerve roots and minced in a calcium-free HBSS (Gibco). Human DRG cultures were prepared as previously reported (Xu, Z Z, et al. 2015). DRGs were digested at 37° C. in humidified O2 incubator for 120 min with collagenase Type II (Worthington, 285 units/mg, 12 mg/ml final concentration) and dispase II (Roche, 1 unit/mg, 20 mg/ml) in PBS with 10 mM HEPES, pH adjusted to 7.4 with NaOH. DRGs were mechanically dissociated using fire-polished pipettes, filtered through a […] nylon mesh and centrifuged (500×g for 5 min). The pellet was resuspended, plated on 0.5 mg/ml poly-D-lysine-coated glass coverslips, and cells were grown in Neurobasal medium supplemented with 10% FBS, 2% B-27 supplement, 1% N-2 supplement, and 1% penicillin/streptomycin. Whole-cell patch clamp recordings in small-diameter DRG neurons (<55 μm) were conducted at room temperature using patch pipettes with resistances of 2-3 MD. […] The resting membrane potential was measured without a current injection.

naive mice = assay: Basal pain in naive mice (von Frey test, spontaneous pain); format: in vivo, mouse
[4] = test system: dissociated small-diameter mouse DRG neurons; assay: Whole-cell patch clamp recordings in dissociated mouse DRG neurons; format: cell-based; settings: SSG 11 μM
Procedure: Whole-cell patch clamp recordings in dissociated mouse DRG neuron. DRGs were aseptically removed from 4-7 week-old mice and digested with collagenase (0.2 mg/ml, Roche)/dispase-II (3 mg/ml, Roche) for 120 min. Cells were placed on glass cover slips coated with poly-D-lysine and grown in a neurobasal defined medium (10% fetal bovine serum and 2% B27 supplement) at 37° C. with 5% CO2/95% air for 24 h before experiments. Whole-cell voltage clamp recordings were performed at room temperature to measure transient sodium currents and action potentials, respectively, with an EPC10 amplifier (HEKA) and an Axopatch-200B amplifier with a Digidata 1440A (Axon Instruments) (Xu, Z Z, et al. 2015). The patch pipettes were pulled from borosilicate capillaries (Chase Scientific Glass Inc.). When filled with the pipette solution, the resistance of the pipettes was 4-5 MQ. The recording chamber (300 μl) was continuously superfused (3-4 ml/min). Series resistance was compensated for (>80%), and leak subtraction was performed. Data were low-pass-filtered at 2 KHz, sampled at 10 KHz. The pClamp10 (Axon Instruments) software was used during experiments and analysis. For sodium current recording, pipette solution contained (in mM): CsCl 130, NaCl 9, MgCl2 1, EGTA 10, HEPES 10, adjusted to pH 7.4 with CsOH. […] RMP was measured without a current injection.

melanoma-bearing mice = assay: Mouse melanoma model: spontaneous pain, von Frey test, CPP; format: in vivo; settings: for spontaneous pain (licking/flinching) in melanoma-bearing mice: SSG 5 μg i.pl.
mice = assay: Tail-flick and hot-plate tests of morphine antinociception; format: in vivo, mouse; settings: morphine 10 mg/kg s.c.
Procedure: Tail-flick test. All animals were habituated to testing environment for at least 2 days before baseline testing. Mice were gently held by a hand with a terry glove and with tails exposed. The distal 3 cm of the tail was immersed into the 50° C. hot water. The tail-flick latency was the time required for a mouse to flick or remove its tail out of the water. A maximum cut-off value of 15 seconds was set to avoid thermal injury. Tail-flick latency was determined both before and after drug injection. Data are expressed as the maximum possible effect (MPE) calculated as MPE (%)=100×[(postdrug response baseline response)/(cutoff response−baseline response)]. The MPE (%) data from each animal were converted to area under the curve (AUC).
Hot-plate test. All animals were habituated to testing environment for at least 2 days before baseline testing. […] A maximum cut-off value of 40 seconds was set to avoid tissue injury. Data are expressed as the maximum possible effect (MPE) calculated as MPE (%)=100×[(postdrug response−baseline response)/(cutoff response−baseline response)]. The MPE (%) data from each animal were converted to area under the curve (AUC).

[5] = test system: small-diameter neurons of whole-mount DRG; assay: Whole-cell patch clamp recordings in whole mount DRGs ex vivo; format: cell-based, mouse; settings: WT whole mount DRG; sPD-1 30 ng/ml, Nivolumab 300 ng/ml
Procedure: Whole-cell patch clamp recordings in whole mount DRGs of mice ex vivo. L4-L5 DRGs were carefully removed 4 days after sham surgery or CCI surgery and placed in cold oxygenated ACSF. The connective tissue was gently removed under a microscope and the ganglia were digested with a mixture of 0.4 mg/mL trypsin (Sigma) and 1.0 mg/ml type-A collagenase (Sigma) for 30 min at 37° C. The intact ganglia were then incubated in ACSF oxygenated with 95% O2 and 5% CO2 at 28° C. for at least 1 h before transferring them to the recording chamber. DRG neurons were visualized with a 40× water-immersion objective using a BX51WI microscope (Olympus). Whole-cell current and voltage recordings were acquired with an Axon700B amplifier. Patch pipettes (4-7 MO) were pulled from borosilicate glass capillaries on P-97 puller. The recording chamber (300 μl) was continuously superfused (3-4 ml/min). Series resistance was compensated for (>80%), and leak subtraction was performed. The pipette solution contained (in mM): 140 KCl, 2 MgCl2, 10 Hepes, 2 Mg-ATP, pH 7.4. Osmolarity was adjusted to 290-300 mOsm. Data was acquired with a Digidata 1322A acquisition system (molecular devices) using pCLAMP 9.0 software. Signals were low-pass filtered at 5 kHz, sampled at 10 kHz and analyzed offline.

[6] = test system: lamina 110 neurons in spinal cord slices; assay: Patch clamp recordings of sEPSCs in spinal cord slices; format: cell-based, mouse; settings: PD-L1 30 ng/ml, sPD-1 30 ng/ml perfusion; Nivolumab 300 ng/ml, 3 h
[7] = test system: T cell, macrophage and inflammatory cytokine marker mRNA; assay: Quantitative real-time RT-PCR of immune markers in melanoma-bearing hindpaw skin; settings: 3 h after sPD-1 treatment (5 μg, i.pl.), MCI-4w
[8] = MCI-4w, sPD-1 5 μg i.pl., siRNA 2 μg peri-sciatic, Nivolumab 3-10 mg/kg i.v., RMP1-14 10 mg/kg i.v.
[9] = i.pl., sPD-1 5 μg, RMP1-14 5 μg, Nivolumab 10 μg

Compound | effect on PD-L1-induced RMP change ([1]; CHO cells co-expressing PD-1 and TREK2) | effect on PD-L1 potentiation of TREK2 currents and Erev shift ([1]; PD-1/TREK2 co-expressing CHO cells) | effect on PD-L1-induced SHP-1 phosphorylation [2] | effect on PD-L1-induced inhibition of sodium currents [3] | effect on analgesic effect of PD-L1 (naive mice; i.pl. SSG plus PD-L1, naive mice) | effect on PD-L1-induced inhibition of sodium currents [4] | spontaneous pain (licking/flinching) in melanoma-bearing mice (melanoma-bearing mice; [8]) | analgesic effect of morphine after human IgG (mice; human IgG i.v.) | analgesic effect of morphine in Pd1−/− mice compared to WT (mice) | firing rate of action potentials [5] | duration of mechanical allodynia in naive mice (naive mice; [9]) [h] | mechanical allodynia in naive mice (naive mice; [9]) | spontaneous pain in naive mice (naive mice; sPD-1 5 μg i.pl.) | amplitude of spontaneous EPSCs (sEPSCs) [6] | frequency of spontaneous EPSCs (sEPSCs) [6] | mechanical allodynia in melanoma-bearing mice (melanoma-bearing mice; [8]) | conditioned place preference (CPP), ongoing pain (melanoma-bearing mice; i.pl. sPD-1, two-chamber test) | onset of spontaneous pain after injection (melanoma-bearing mice; sPD-1 5 μg i.pl., MCI-4w) [min] | mRNA levels of immune/inflammatory markers in hindpaw skin [7]
O.O.O.O.O.O.O.O.O.O=C([O-])[C@@H]1[O][Sb]2([O-])([O][Sb]34([OH])[O][C@H]([C@H](O)CO)[C@H]([O]3)[C@H](C(=O)[O-])[O]4)[O][C@H]([C@H](O)CO)[C@@H]1[O]2.[Na+].[Na+].[Na+] [SSG, sodium stibogluconate] | blocked | abolished | blocked | completely blocked | abolished | partially blocked | elicited spontaneous pain |  |  |  |  |  |  |  |  |  |  |  | 
CN1CC[C@]23c4c5ccc(O)c4O[C@H]2[C@@H](O)C=C[C@H]3[C@H]1C5 [morphine] |  |  |  |  |  |  |  | typical analgesic effect | reduced analgesic (antinociceptive) effect |  |  |  |  |  |  |  |  |  | 
sPD-1: soluble PD-1 used to neutralize PD-L1; Mouse PD-1 from R&D (1021-PD-100) |  |  |  |  |  |  | marked spontaneous pain |  |  | increased the firing rate | 3 | transient mechanical allodynia | without causing spontaneous pain | not amplitude | increased sEPSC frequency | induced mechanical allodynia | marked CPP | 10 to 30 | did not alter
